Experimental data taken from ChEMBL document CHEMBL1150932, “Norepinephrine-augmenting lipolytic effectors from Astilbe thunbergii rhizomes” (J Nat Prod, 1998).
The source made the active and inactive calls. The calls are words filed in the database; no cut-off is given here.

Assays:
Rattus norvegicus [1] = organism: Rattus norvegicus; test: Enhancement of norepinephrine-induced lipolysis in Wistar rat fat cells assessed as free fatty acid release per mL of packed fat cells after 1 hr relative to norepinephrine; type: functional, cell-based
Rattus norvegicus [2] = organism: Rattus norvegicus; test: Induction of lipolysis in Wistar rat fat cells assessed as free fatty acid release per mL of packed fat cells after 1 hr relative to norepinephrine; type: functional, cell-based
Rattus norvegicus [3] = organism: Rattus norvegicus; test: Enhancement of norepinephrine-induced lipolysis in cell-free system consisting endogenous lipid droplets from Wistar rat fat cells assessed as free fatty acid release per mL of packed fat cells after 1 hr in presence of hormone-sensitive lipase; type: functional
[4] = Effect on lipolysis in cell-free system consisting sonicated lipid droplets assessed as free fatty acid release at 1000 ug in presence of hormone-sensitive lipase relative to untreated control; type: physicochemical
[5] = Enhancement of norepinephrine-induced lipolysis in cell-free system consisting sonicated lipid droplets assessed as free fatty acid release at 1000 ug in presence of hormone-sensitive lipase relative to untreated control; type: physicochemical
[6] = Stimulation of ACTH-induced lipolysis in Wistar rat fat cells assessed as free fatty acid release per mL of packed fat cells at 100 ug after 1 hr relative to ACTH; type: functional
[7] = Stimulation of ACTH-induced lipolysis in Wistar rat fat cells assessed as free fatty acid release per mL of packed fat cells at 1000 ug after 1 hr relative to ACTH; type: functional
Rattus norvegicus [8] = organism: Rattus norvegicus; test: Inhibition of insulin-induced lipogenesis from [U-14C]glucose in Wistar rat fat cells after 1 hr by liquid scintillation counting; type: functional, cell-based

Row | SMILES | Activity (Rattus norvegicus [1]) | Activity (Rattus norvegicus [2]) | Activity (Rattus norvegicus [3]) | Activity [4] | Activity [5] | Activity [6] | Activity [7] | Activity (Rattus norvegicus [8])
1 | C[C@@H]1O[C@@H](Oc2coc3cc(O)cc(O)c3c2=O)[C@H](O)[C@H](O)[C@H]1O [EUCRYPHIN] | Active | inactive | Active | 98.5% | 100% | 79.4% | 332.8% | Active
2 | COc1c(O)cc2c(c1O)[C@@H]1O[C@H](CO)[C@@H](O)[C@H](O)[C@H]1OC2=O [BERGENIN] | Active | inactive | Active | 98.6% | 96.2% | 105.9% | 356.9% | Active
3 | C[C@@H]1O[C@@H](O[C@H]2C(=O)c3c(O)cc(O)cc3O[C@@H]2c2ccc(O)c(O)c2)[C@H](O)[C@H](O)[C@H]1O [ASTILBIN] | Active | inactive | Active | 95.7% | 98.5% | 195.6% | 278.4% | Active
